According to ChEMBL document CHEMBL5321197, “Computational, in vitro and radiation-based in vivo studies on acetamide quinazolinone derivatives as new proposed purine nucleoside phosphorylase inhibitors for breast cancer” (Eur J Med Chem, 2023):
pIC50: −log10 of the molar value.

Tests used:
[1] = system: MCF7; test: Cytotoxicity against human MCF7 cells assessed as reduction in cell viability incubated for 24 hrs by MTT assay; format: functional, cell-based; conditions: MCF7, 24 h
[2] = molecular target: T1, Purine nucleoside phosphorylase (Homo sapiens, UniProt P00491); test: Inhibition of PNP (unknown origin) by fluorescent based microplate reader analysis
T1 sequence (P00491 whole entry): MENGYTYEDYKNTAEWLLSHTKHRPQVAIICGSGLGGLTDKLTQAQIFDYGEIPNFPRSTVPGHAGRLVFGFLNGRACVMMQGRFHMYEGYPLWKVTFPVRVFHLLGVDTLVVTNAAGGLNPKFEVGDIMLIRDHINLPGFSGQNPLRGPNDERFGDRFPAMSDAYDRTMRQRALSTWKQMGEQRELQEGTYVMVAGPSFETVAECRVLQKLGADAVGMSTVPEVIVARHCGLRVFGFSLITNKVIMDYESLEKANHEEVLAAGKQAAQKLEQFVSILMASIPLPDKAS

[3] = system: MDA-MB-468; test: Cytotoxicity against human MDA-MB-468 cells assessed as reduction in cell viability incubated for 24 hrs by MTT assay; format: functional, cell-based; conditions: MDA-MB-468, 24 h
[4] = system: T47D; test: Cytotoxicity against human T47D cells assessed as reduction in cell viability incubated for 24 hrs by MTT assay; format: functional, cell-based
[5] = system: BT-549; test: Cytotoxicity against human BT-549 cells assessed as reduction in cell viability incubated for 24 hrs by MTT assay; format: functional, cell-based; conditions: BT-549, 24 h
[6] = system: Hs-578T; test: cells; format: functional, cell-based; conditions: Homo sapiens, 24 h
Description: Cytotoxicity against human Hs-578T cells assessed as reduction in cell viability incubated for 24 hrs by MTT assay

[7] = system: MDA-MB-231; test: Cytotoxicity against human MDA-MB-231 cells assessed as reduction in cell viability incubated for 24 hrs by MTT assay; format: functional, cell-based; conditions: MDA-MB-231, 24 h
[8] = system: MCF-10A; test: Cytotoxicity against human MCF-10A cells assessed as reduction in cell viability incubated for 24 hrs by MTT assay; format: functional, cell-based

pIC50 [2]	Structure (SMILES)	pIC50 [1]	also measured
6.35	Cc1ccc2c(c1)c(=O)n(-c1ccccc1)c(=S)n2CC(=O)NCCc1ccccc1	4.32	
	COc1cc(NC(=O)Cn2c(=S)n(-c3ccccc3)c(=O)c3cc(C)ccc32)cc(OC)c1	5.01	
6.76	CCOC(=O)N1CCC(NC(=O)Cn2c(=S)n(-c3ccccc3)c(=O)c3cc(C)ccc32)CC1	5.75	
6.47	COc1ccc(NC(=O)Cn2c(=S)n(-c3ccccc3)c(=O)c3cc(C)ccc32)cc1OC	5.29	
6.80	CCOC(=O)c1ccccc1NC(=O)Cn1c(=S)n(-c2ccccc2)c(=O)c2cc(C)ccc21	6.00	pIC50 [3]: 5.23; pIC50 [4]: 5.34; pIC50 [5]: 5.16; pIC50 [6]: 4.65; pIC50 [7]: 5.22; pIC50 [8]: 4.17
6.00	CC(=O)c1ccccc1NC(=O)Cn1c(=S)n(-c2ccccc2)c(=O)c2cc(C)ccc21	4.06	
5.50	COc1cc(NC(=O)CSc2nc3ccc(C)cc3c(=O)n2-c2ccccc2)cc(OC)c1OC	3.80	
6.59	COc1cc(NC(=O)Cn2c(=S)n(-c3ccccc3)c(=O)c3cc(C)ccc32)cc(OC)c1OC	5.43	
5.88	COc1cc(NC(=O)CSc2nc3ccc(C)cc3c(=O)n2-c2ccccc2)cc(OC)c1	5.07	
5.73	CCOC(=O)N1CCC(NC(=O)CSc2nc3ccc(C)cc3c(=O)n2-c2ccccc2)CC1	4.51	
5.95	Cc1ccc2nc(SCC(=O)NCCc3ccccc3)n(-c3ccccc3)c(=O)c2c1	3.98	
	COc1cc2ncnc(Nc3ccc(F)c(Cl)c3)c2cc1OCCCN1CCOCC1 [GEFITINIB]		pIC50 [4]: 5.46
5.25	COc1ccc(NC(=O)CSc2nc3ccc(C)cc3c(=O)n2-c2ccccc2)cc1OC	3.42	
7.39	Nc1nc2c(Cc3cccnc3)c[nH]c2c(=O)[nH]1 [PELDESINE]		
5.67	CCOC(=O)c1ccccc1NC(=O)CSc1nc2ccc(C)cc2c(=O)n1-c1ccccc1	3.03	
5.47	CC(=O)c1ccccc1NC(=O)CSc1nc2ccc(C)cc2c(=O)n1-c1ccccc1	3.56	
